Data: ChEMBL document CHEMBL5223190, “Discovery of Bis-sulfonamides as Novel Inhibitors of Mitochondrial NADH-Quinone Oxidoreductase (Complex I)” (ACS Med Chem Lett, 2023)
Active and inactive are the calls of the source. The rule behind the calls is not given here.

Key:
[1] = Inhibition of bovine heart NADH oxidase activity using submitochondrial particle as source of enzyme measured after 4 mins; format: mitochondria, Bos taurus, Mitochondria
[2] = Inhibition of bovine heart succinate-cytochrome c oxidoreductase activity using submitochondrial particle as source of enzyme measured after 4 mins; format: mitochondria, Bos taurus, Mitochondria
[3] = species on record: Bos taurus; assay: Binding affinity to bovine heart NADH-Q1 oxidoreductase (complex 1) oxidase activity using submitochondrial particle as source of enzyme using [125I]-(S)-2-{[(tert-butyldiphenylsilyl)oxy]methyl}-1-{[3-(hexyloxy)propyl]sulfonyl}pyrrolidine by SDS-PAGE analysis; settings: Mitochondria
[4] = Inhibition of bovine heart NADH-Q1 oxidoreductase (complex 1) oxidase activity using submitochondrial particle as source of enzyme measured after 4 mins; format: mitochondria, Bos taurus, Mitochondria

SMILES | IC50 [1] | also measured
O=S(=O)(c1ccc(Cl)cc1)N1CCC[C@H]1COCOC[C@@H]1CCCN1S(=O)(=O)c1ccc(Cl)cc1 | 1100 nM | 
CCCCCc1ccc(S(=O)(=O)N2CCC[C@H]2COCOC[C@@H]2CCCN2S(=O)(=O)c2ccc(CCCCC)cc2)cc1 | 150 nM | 
Cc1ccc(S(=O)(=O)N(C)CCOCOCCN(C)S(=O)(=O)c2ccc(C)cc2)cc1 | 6400 nM | 
CCCCCCCCCCS(=O)(=O)N1CCC[C@H]1COCOC[C@@H]1CCCN1S(=O)(=O)CCCCCCCCCC | 88 nM | 
Cc1ccc(S(=O)(=O)N2CC[C@H]2COCOC[C@@H]2CCN2S(=O)(=O)c2ccc(C)cc2)cc1 | 870 nM | 
COCOC[C@@H]1CCCN1S(=O)(=O)c1ccc(C)cc1 | 85000 nM | 
Cc1ccc(S(=O)(=O)N2CCC[C@H]2COCOC[C@@H]2CCCN2S(=O)(=O)c2ccc(C)cc2)cc1 | 890 nM | 
Cc1ccc(S(=O)(=O)N2CCC[C@H]2CCOCOCC[C@@H]2CCCN2S(=O)(=O)c2ccc(C)cc2)cc1 | 620 nM | 
Cc1ccc(S(=O)(=O)N2CC[C@@H](COCOC[C@@H]3CCN(S(=O)(=O)c4ccc(C)cc4)C3)C2)cc1 | 1300 nM | 
CCCCCCc1ccc(S(=O)(=O)N2CCC[C@H]2COCOC[C@@H]2CCCN2S(=O)(=O)c2ccc(CCCCCC)cc2)cc1 | 98 nM | 
CCCCCCCCS(=O)(=O)N1CCC[C@H]1COCOC[C@@H]1CCCN1S(=O)(=O)CCCCCCCC | 360 nM | 
CCCCCCCCCCS(=O)(=O)N1CCC[C@H]1COCOC[C@@H]1CCCN1S(=O)(=O)CCCOCCCCCC | 48 nM | 
COc1ccc(S(=O)(=O)N2CCC[C@H]2COCOC[C@@H]2CCCN2S(=O)(=O)c2ccc(OC)cc2)cc1 | 4400 nM | 
Cc1ccc(S(=O)(=O)N2CCC[C@H]2CO)cc1 | > 230000 nM | 
Cc1ccc(S(=O)(=O)N2CCCC[C@H]2COCOC[C@@H]2CCCCN2S(=O)(=O)c2ccc(C)cc2)cc1 | 2600 nM | 
Cc1ccc(S(=O)(=O)N2CCC[C@@H]2COCOC[C@@H]2CCCN2S(=O)(=O)c2ccc(C)cc2)cc1 | 810 nM | 
CCCCCCCCCCS(=O)(=O)N1CCC[C@H]1COCOC[C@@H]1CCCN1S(=O)(=O)CCCOc1ccc(I)cc1 | 17 nM | IC50 [2]: > 20 µM; Activity [3]: Active; IC50 [4]: 40 nM
O=S(=O)(CCCOc1ccccc1)N1CCC[C@H]1COCOC[C@@H]1CCCN1S(=O)(=O)CCCOc1ccccc1 | 2400 nM | 

SMILES | IC50 [1] | also measured
CCCCCCCCCCCCS(=O)(=O)N1CCC[C@H]1COCOC[C@@H]1CCCN1S(=O)(=O)CCCCCCCCCCCC | 6500 nM | 
CCCCCCCCCCS(=O)(=O)N1CCC[C@H]1COCOC[C@@H]1CCCN1S(=O)(=O)CCCOc1ccccc1 | 150 nM | 
Cc1ccc(OCCCS(=O)(=O)N2CCC[C@H]2COCOC[C@@H]2CCCN2S(=O)(=O)CCCOc2ccc(C)cc2)cc1 | 270 nM | 
Cc1ccc(S(=O)(=O)N2CC[C@@H](OCO[C@@H]3CCN(S(=O)(=O)c4ccc(C)cc4)C3)C2)cc1 | 31000 nM | 
O=S(=O)(c1ccccc1)N1CCC[C@H]1COCOC[C@@H]1CCCN1S(=O)(=O)c1ccccc1 | 4100 nM | 
CCCCCCCCCCS(=O)(=O)N1CCC[C@H]1COCOC[C@@H]1CCCN1S(=O)(=O)CCCOc1ccc(C)cc1 | 72 nM | 
CCCCCCCc1ccc(S(=O)(=O)N2CCC[C@H]2COCOC[C@@H]2CCCN2S(=O)(=O)c2ccc(CCCCCCC)cc2)cc1 | 3600 nM | 
Cc1ccc(S(=O)(=O)N2CCC[C@H]2COCOCCCc2ccccc2)cc1 | 1100 nM | 
CCCCc1ccc(S(=O)(=O)N2CCC[C@H]2COCOC[C@@H]2CCCN2S(=O)(=O)c2ccc(CCCC)cc2)cc1 | 140 nM | 
CCCCCCOCCCS(=O)(=O)N1CCC[C@H]1COCOC[C@@H]1CCCN1S(=O)(=O)CCCOCCCCCC | 260 nM | 
Cc1ccc(S(=O)(=O)N2[C@H](COCOC[C@@H]3C[C@@H]4CCCC[C@@H]4N3S(=O)(=O)c3ccc(C)cc3)C[C@@H]3CCCC[C@@H]32)cc1 | 5800 nM | 
CC1(CCCCCCCCS(=O)(=O)N2CCC[C@H]2COCOC[C@@H]2CCCN2S(=O)(=O)CCCOc2ccc(I)cc2)N=N1 | 16 nM | 
Cc1ccc(C(=O)N2CCC[C@H]2COCOC[C@@H]2CCCN2C(=O)c2ccc(C)cc2)cc1 | 5000 nM | 
CCCCCCCCc1ccc(S(=O)(=O)N2CCC[C@H]2COCOC[C@@H]2CCCN2S(=O)(=O)c2ccc(CCCCCCCC)cc2)cc1 | 3400 nM | 
Cc1ccc(S(=O)(=O)N2CCC[C@H]2COCOCc2ccccc2)cc1 | 4600 nM | 
Cc1ccc(S(=O)(=O)N2CCC[C@@H]2COCOC[C@H]2CCCN2S(=O)(=O)c2ccc(C)cc2)cc1 | 3100 nM | 
O=S(=O)(CCCOc1ccc(I)cc1)N1CCC[C@H]1COCOC[C@@H]1CCCN1S(=O)(=O)CCCOc1ccc(I)cc1 | 14 nM | IC50 [2]: > 20 µM; Activity [3]: Active; IC50 [4]: 26 nM
